Experimental findings from patent publication US9169217B2, “Arylalkyl esters of 4-amino-6-(substituted phenyl)-picolinates and 6-amino-2-(substituted phenyl)-pyrimidinecarboxylates and their use as selective herbicides for crops” (Dow AgroSciences LLC, priority 2011, dated 2015) are described below.

Like-named read-outs stand apart in the source and are kept apart here.

Holding throughout (format): in vivo
The test system of test [1] is Echinochloa crus-galli (L.) P.BEAUV. (barnyardgrass). Description: In-water applied herbicidal activity in transplanted paddy rice (Example 17). Conditions: for pest or weed control at 35 g/ha / pest or weed control at 17.5 g/ha: Echinochloa crus-galli, 504 h, read-out: Visual Injury (%) ECHCG; for pest or weed control at 35 g/ha: 35 g ae/ha; for GR50 / GR80 / GR90: ECHCG, in-water applied, probit analysis; for GR50: 50% growth reduction; for GR80: 80% growth reduction; for GR90: 90% growth reduction. In a few lines:
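Ester forms of test compounds, in acetone diluted with aqueous Agri-dex (final 1.25% v/v crop oil concentrate), were injected into the flood water of paddy pots holding weeds or rice at the 2nd–3rd leaf stage in mud (pH ~7.3–7.8). Visual injury versus untreated plants was scored 0–100% after 3 weeks in greenhouse (~29/26 °C). GR50/GR80 were derived by probit analysis.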

The test system of test [2] is Matricaria chamomilla (Mayweed, wild). Nature of the test: Postemergence herbicidal activity in cereal crops (Example 14). The following applies: wheat cropping systems, postemergence spray, 35 g ae/ha, 21 DAA. The method, then:
(§1) Seeds of the desired test plant species were planted in Sun Gro Metro-Mix® 360 planting mixture, which typically has a pH of 6.0 to 6.8 and an organic matter content of about 30 percent, in plastic pots with a surface area of 84.6 cm^2. When required to ensure good germination and healthy plants, a fungicide treatment and/or other chemical or physical treatment was applied. The plants were grown for 7-36 d in a greenhouse with an approximate 14 h photoperiod which was maintained at about 18° C. during the day and 17° C. during the night. Nutrients and water were added on a regular basis and supplemental lighting was provided with overhead metal halide 1000-Watt lamps as necessary. The plants were employed for testing when they reached the second or third true leaf stage.
(§2) Treatments consisted of esters of compounds 33, 34, 39, 40 and 42 and B, F, G and H. Compound B is methyl 4-amino-3-chloro-6-(4-cyclopropylphenyl)-5-fluoropicolinate; compound F is methyl 6-amino-2-(4-chloro-2-fluoro-3-methoxyphenyl)-5-methoxypyrimidine-4-carboxylate; compound G is methyl 4-amino-3-chloro-6-(4-chloro-2-fluoro-3-methoxyphenyl)picolinate; and compound H is methyl 4-amino-3-chloro-6-(4-chloro-2-fluoro-3-(1-fluoroethyl)phenyl)-5-fluoropicolinate. A weighed amount, determined by the highest rate to be tested, of each test compound was placed in a 25 mL glass vial and was dissolved in 8 mL of a 97:3 v/v mixture of acetone and DMSO to obtain concentrated stock solutions. […] The concentrated stock solutions obtained were diluted with 16 mL of an aqueous mixture containing acetone, water, isopropyl alcohol, DMSO, Agri-dex crop oil concentrate, and Triton® X-77 surfactant in a 64.7:26.0:6.7:2.0:0.7:0.01 v/v ratio to obtain spray solutions containing the highest application rates. Additional application rates were obtained by serial dilution of 12 mL of the high rate solution into a solution containing 4 mL of a 97:3 v/v mixture of acetone and DMSO and 8 mL of an aqueous mixture containing acetone, water, isopropyl alcohol, DMSO, Agri-dex crop oil concentrate, and Triton® X-77 surfactant in a 48.5:39.0:10.0:1.5:1.0:0.02 v/v ratio to obtain ½×, ¼×, ⅛× and 1/16× rates of the high rate. Compound requirements are based upon a 12 mL application volume at a rate of 187 L/ha. Formulated compounds were applied to the plant material with an overhead Mandel track sprayer equipped with 8002E nozzles calibrated to deliver 187 L/ha over an application area of 0.503 m^2 at a spray height of 18 inches (43 cm) above average plant canopy height. Control plants were sprayed in the same manner with the blank.
(§3) The treated plants and control plants were placed in a greenhouse as described above and watered by sub-irrigation to prevent wash-off of the test compounds. After 20-22 d, the condition of the test plants as compared with that of the untreated plants was determined visually and scored on a scale of 0 to 100 percent where 0 corresponds to no injury and 100 corresponds to complete kill.

For test [3], the system named is Brassica sinapis (Mustard, wild). The test is described as above. Conditions: wheat cropping systems, postemergence spray, 35 g ae/ha, 21 DAA. The method, then: as §1, §2, §3
Test [4] has as its system Polygonum convolvulus (Buckwheat, wild). The description is as above. The following applies: wheat cropping systems, postemergence spray, 35 g ae/ha, 21 DAA. The method, then:
as §1, §2, §3

[5] abbreviates: rice cropping systems, in-water applied (paddy), 21 DAA, may represent multiple trials.
[6] abbreviates: rice cropping systems, in-water applied (paddy), 17.5 g ae/ha, 21 DAA, may represent multiple trials.

On to `COC(=O)c1nc(-c2ccc(Cl)c(OC)c2F)nc(N)c1OC` [Compound F, methyl 6-amino-2-(4-chloro-2-fluoro-3-methoxyphenyl)-5-methoxypyrimidine-4-carboxylate, reference compound], for which the pest or weed control at 35 g/ha in test [1] (setting [5]) was determined as 0%. Also, the “Visual Injury (%) MATCH” value in test [2] is on record as 10%.

As for `COC(=O)c1nc(-c2ccc(Cl)c(OC)c2F)cc(N)c1Cl` [Compound G, methyl 4-amino-3-chloro-6-(4-chloro-2-fluoro-3-methoxyphenyl)picolinate, reference compound], in test [1] (setting [5]), the pest or weed control at 35 g/ha is 74%. In test [2], the “Visual Injury (%) MATCH” value is 75%. In addition, the “Visual Injury (%) SINAR” value in test [3] came to 80%. Moreover, the “Visual Injury (%) POLCO” value in test [4] is listed as 85%.

In test [1], `COC(=O)c1nc(-c2ccc(Cl)c(OC)c2F)c(F)c(N)c1Cl` [E, methyl 4-amino-3-chloro-6-(4-chloro-2-fluoro-3-methoxyphenyl)-5-fluoropicolinate, reference compound] registered a GR50 of 33.2 g ae/ha, a GR80 of 58.5 g ae/ha and a GR90 of 78.7 g ae/ha. The pest or weed control at 17.5 g/ha in test [1] (setting [6]) stood at 26%.

Consider `Nc1c(F)c(-c2ccc(C3CC3)cc2)nc(C(=O)OCc2ccccc2)c1Cl` [Compound 42, benzyl 4-amino-3-chloro-6-(4-cyclopropylphenyl)-5-fluoropicolinate], for which the pest or weed control at 17.5 g/ha in test [1] (setting [6]) is 70%. For the same molecule, the “Visual Injury (%) SINAR” value in test [3] was found to be 93%. Also, the “Visual Injury (%) POLCO” value in test [4] is 95%.

For the molecule `COC(=O)c1nc(-c2ccc(C3CC3)cc2)c(F)c(N)c1Cl` [Compound B, methyl 4-amino-3-chloro-6-(4-cyclopropylphenyl)-5-fluoropicolinate], the pest or weed control at 17.5 g/ha in test [1] (setting [6]) was 10%. The “Visual Injury (%) SINAR” value in test [3] is recorded as 70%. The “Visual Injury (%) POLCO” value in test [4] was 62%.

As for `COc1c(Cl)ccc(-c2nc(C(=O)OCc3ccccc3)c(Cl)c(N)c2F)c1F` [Compound 1, benzyl 4-amino-3-chloro-6-(4-chloro-2-fluoro-3-methoxyphenyl)-5-fluoropicolinate], in test [1], the GR50 worked out at 10.9 g ae/ha, the GR80 is reported as 21.8 g ae/ha, the GR90 was 31.2 g ae/ha and the pest or weed control at 17.5 g/ha is 87%.

Consider `COc1c(Cl)ccc(-c2cc(N)c(Cl)c(C(=O)OCc3ccccc3)n2)c1F` [Compound 39], for which, in test [1] (setting [5]), the pest or weed control at 35 g/ha is 100%. Also, the “Visual Injury (%) MATCH” value in test [2] is 95%. In addition, the “Visual Injury (%) SINAR” value in test [3] is on record as 95%. Moreover, the “Visual Injury (%) POLCO” value in test [4] is 95%.
